Test results taken from patent publication US20050118715A1, “Modulation of stem and progenitor cell differentiation, assays, and uses thereof” (priority 2002, published 2005).

Tested on: Sca+Lin- progenitors
Test: Generation of murine dendritic cells from bone marrow Sca+ progenitors, cell surface phenotype (Example 13)
Format: cell-based, C57BL/6 mice
Conditions: 10 μM
Source text: Mouse bone marrow from inbred C57BL/6 mice are obtained from Clonetics. Hematopoietic Sca+Lin− progenitors are enriched using SpinSep murine progenitor enrichment cocktail (StemCell Technologies) and cultured in Iscove's MDM with BUI 95000 (StemCell Technologies) in the presence of murine growth factors SCF, Flt3L, GM-CSF and M-CSF for 9 days, to promote expansion of Sca+ cells and a DC precursor phenotype and then in the presence of GM-CSF and TNF-α for 3 additional days to drive the cells to an immature DC phenotype. Enriched Sca+Lin− cells are cultured in the presence of DMSO (0.1%), SelCIDs™ at 10 μM or all-trans retinoic acid (ATRA) (ICN Biomedicals) at 10 μM from day 0. Compounds are added to cells at day 0 and day 9.
Analysis of Murine cell surface phenotype: murine cells are processed for double staining (14 min at RT) at day 9 and day 12; using FITC and PE conjugated mAbs. Antibodies used are from BD Pharmingen: Sca (PE), CD11b (FITC), Gr-1 ([…]), CD86 (PE), CD14 (PE), CD80 (PE), I-Ab (PE), CD40 (PE) and CD32.1/16.1 (FITC) from Miltenyi. Fluorescence analysis is performed on a FACScan flow cytometer ([…]) after acquisition of 10,000 events.

## CC1=C(/C=C/C(C)=C/C=C/C(C)=C/C(=O)O)C(C)(C)CCC1 [ATRA, all-trans retinoic acid]
By day 9
  CD80, I-A^b and Sca+ expression: marked downregulation
By day 12
  expression of CD40 and CD80: marked downregulation
